We go through 3 compounds from PMC6214143, “Oncotoxic Properties of Serotonin Transporter Inhibitors and 5-HT1A Receptor Ligands” (International Journal of Molecular Sciences, 2018).

Where a name gives a salt, the structure may show the parent alone.

Details of data set [1]: method as in PMID 7705455. To be noted: rats, s.c.; cited from earlier work.
Data set [2] deals with PC-3 cells. Description: MTT cell survival assay, PC-3 cells. The class given is cell-based, human. To be noted: for IC50: Homo sapiens, MTT, 72 h. Here is the method: (§1) The effects of the test compounds on the survival of PC-3, SH-SY5Y, Balb/c 3T3 and HEK293 cells was measured with the aid of the 3-(4,5-dimethylthiazol-2-yl)-2,5-diphenyltetrazolium bromide (MTT) assay. The cells were cultured in 96-well plates (100 μL/well) for 72 h. The optimized initial densities were the following: for PC-3—60,000 cells/mL, SH-SY5Y and Balb/c 3T3—50,000 cells/mL.
(§2) After 20 h preincubation and evaluation of the uniformity of cell growth, the medium was aspirated, and the respective solutions of the substances were added to the culture medium. Control cells were only treated the solvent used for the compounds and medium alone.
(§3) MTT (3-(4,5-dimethylthiazol-2-yl)-2,5-diphenyltetrazolium bromide) is reduced by intracellular dehydrogenase, which is present only in live cells (mitochondria), to purple, water-insoluble formazan. After it is dissolved, formazan absorbance of the resulting solution is directly proportional to the number of living cells in culture.
(§4) After appropriate incubation, the culture medium was removed. Next, 50 μL of MTT solution (0.5 mg/mL) diluted in PBS to 0.5 mg/mL was added to each well. […] Then, the precipitated formazan was dissolved by the addition of 200 μL isopropanol. […] The plates were sealed to reduce evaporation before incubation. The test was performed in three to five independent experiments with four times the measured concentration tested. The cell survival percentage was determined as % of controls, which were cells treated with the test compound solvent at the highest concentration.
(Formazan colour is commonly taken as a measure of viable cells.)

In another data set the test system is SH-SY5Y cells. Nature of the data set: MTT cell survival assay, SH-SY5Y cells. The class given is cell-based, human. Particulars: for IC50: Homo sapiens, MTT, 72 h. Here is the method:
as §1, §2, §3, §4

For the next data set, the system named is Balb/c 3T3 cells. Nature of the data set: MTT cell survival assay, Balb/c 3T3 cells (normal reference). Type of data set: cell-based, murine. Particulars: Mus musculus, BALB/c3T3, 72 h. Here is the method:
as §1, §2, §3
After appropriate incubation, the culture medium was removed. Next, 50 μL of MTT solution (0.5 mg/mL) diluted in PBS to 0.5 mg/mL was added to each well. The plates were incubated for 3 h at 37 °C. Then, the precipitated formazan was dissolved by the addition of 200 μL isopropanol. After a 24-hour incubation at 4 °C in the dark, the absorbance of the dissolved formazan was measured at 570 nm (the maximum absorption of formazan) and at 690 nm (reference wavelength) using a Power Wave XS microplate spectrophotometer (Bio-Tek, Winooski, VT, USA). The plates were sealed to reduce evaporation before incubation. The test was performed in three to five independent experiments with four times the measured concentration tested. The cell survival percentage was determined as % of controls, which were cells treated with the test compound solvent at the highest concentration.

Data set [3] deals with T1, 5-HT1A receptor (Homo sapiens, UniProt P08908).
T1 construct: EGFP; expressed in transfected cells
T1 sequence (P08908 1-422): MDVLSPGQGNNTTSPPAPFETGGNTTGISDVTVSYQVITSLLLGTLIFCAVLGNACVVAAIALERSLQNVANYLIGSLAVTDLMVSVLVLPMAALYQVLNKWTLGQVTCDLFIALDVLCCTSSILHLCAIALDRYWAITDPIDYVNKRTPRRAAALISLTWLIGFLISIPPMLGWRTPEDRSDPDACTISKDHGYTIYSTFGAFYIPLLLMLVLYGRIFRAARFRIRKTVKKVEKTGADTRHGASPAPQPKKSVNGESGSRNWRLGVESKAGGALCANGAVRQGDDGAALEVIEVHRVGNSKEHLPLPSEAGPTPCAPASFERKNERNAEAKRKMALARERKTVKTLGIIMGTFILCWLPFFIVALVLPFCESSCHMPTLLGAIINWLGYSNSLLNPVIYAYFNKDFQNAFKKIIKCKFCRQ
Description: cAMP level (HTRF) in HEK293 cells that overexpress the 5-HT1AR gene. Type of data set: cell-based. Here is the method:
(§5) The examination of the functional activity read out as cAMP level inhibition and ERK1/2 and Akt1 phosphorylation was performed according to the instructions of the One-plate Cisbio Bioassays cAMP dynamic 2, phospho-ERK (Thr202/Tyr204) and Akt1 phospho- S473 Cellular Assay Kits respectively, using a HEK293 human fibroblast cell line that overexpresses 5-HT1A receptors. […] The cAMP levels in PC-3 cells were determined using 600,000 cells/mL. Receptor activation with the appropriate ligands was carried out for 30 min, and then the cells were lysed. The results were analyzed with GraphPad Prism v 6.0 (GraphPad Software, San Diego, CA, USA) using its in-built functions. Ligand activity was determined using a 4-parameter equation of the dose-response function. […] M.
(§6) All compounds were tested with both agonists and antagonists. To test the response of cAMP to an agonist the cells were activated with forskolin (1 µM) followed by agonist addition. […] Data are an average of minimum three independent experiments in duplicate. The control of specific activity was measured under the same conditions on cells lacking the 5-HT1A receptor. The results were expressed as % of the reference agonist activity. In the antagonist mode 100% of the reference agonist activity (EC80) corresponded to 0% antagonist activity.

Data set [4] deals with T1, 5-HT1A receptor. Description: ERK1/2 phosphorylation (HTRF) in HEK293 cells that overexpress the 5-HT1AR gene. Type of data set: cell-based. Particulars: HEK293-5-HT1A cells. How it is done: as §5, §6
(In general: In TR-FRET formats the signal depends on donor and acceptor labels being close together.)

Another data set concerns Akt pathway. Description: pAkt level (Akt1 phospho-S473 HTRF) in HEK293 cells that overexpress the 5-HT1AR gene. To be noted: Homo sapiens. The class given is cell-based. Here is the method: (§7) The examination of the functional activity read out as cAMP level inhibition and ERK1/2 and Akt1 phosphorylation was performed according to the instructions of the One-plate Cisbio Bioassays cAMP dynamic 2, phospho-ERK (Thr202/Tyr204) and Akt1 phospho- S473 Cellular Assay Kits respectively, using a HEK293 human fibroblast cell line that overexpresses 5-HT1A receptors. The measurements were performed in 384-well microtiter plates using 200,000, 1,875,000 or 2,000,000 cells/mL. The cAMP levels in PC-3 cells were determined using 600,000 cells/mL. Receptor activation with the appropriate ligands was carried out for 30 min, and then the cells were lysed. The results were analyzed with GraphPad Prism v 6.0 (GraphPad Software, San Diego, CA, USA) using its in-built functions. Ligand activity was determined using a 4-parameter equation of the dose-response function. The response curves were obtained by plotting the HTRF® ratio (signal ratio 665/620 nm × 10,000) relative to the log concentration of the [compound] M.

Data set [5] deals with PC-3 cells. Description: cAMP level in PC-3 prostate cancer cells. The class given is cell-based. Particulars: Homo sapiens, 1 µM forskolin. How it is done:
as §7

Data set [6] addresses 5-HT1A receptor. To be noted: cited from earlier work.
A further data set concerns dopamine D2 receptor. To be noted: cited from earlier work.
Data set [7] concerns the target T2, serotonin transporter (SERT) (Rattus norvegicus, UniProt P31652).
T2 construct: Rat cerebral cortex was homogenized in 30 volumes of ice-cold 50 mM Tris-HCl; from tissue; host or cells: rat cerebral cortex (membrane pellet)
Nature of the data set: In vitro binding affinity for serotonin transporter ([3H]-citalopram displacement). Particulars: rat cerebral cortex, read-out: SERT Ki ± SEM. Here is the method:
The experiments were performed according to the method described by Owens et al. Rat cerebral cortex was homogenized in 30 volumes of ice-cold 50 mM Tris-HCl containing 150 mM NaCl and 5 mM KCl, pH 7.7 at 25 °C and centrifuged at 20,000 × g for 20 min. The supernatant was decanted, and the pellet was resuspended in 30 volumes of buffer and centrifuged three times. The final pellet was suspended in Tris-HCl buffer at a proportion of approximately 5 mg wet weight/mL. An increasing concentration of the analyzed compounds (30 μL) was added to the incubation mixture containing 240 μL of tissue suspension and 30 μL of 1 nM [^3H]-citalopram (used for labeling 5-HT-transporter). Non-specific binding was determined in the presence 30 μL of 1 μM imipramine (displacer). Duplicate samples were incubated at room temperature for 1 h. The incubation was terminated by rapid filtration over fiberglass filters FilterMate B (Perkin Elmer, Waltham, MA, USA) using a 96-well FilterMate harvester (PerkinElmer, Waltham, MA, USA). The radioactivity of the filters was measured with a MicroBeta TriLux 1450 scintillation counter. Ki values were calculated from the Cheng–Prusoff equation [31]: (1) Ki=IC50/1+Lo/KD where Lo is the labeled ligand concentration, and KD is the dissociation constant of the labeled ligand.

[8] abbreviates: agonist mode, read-out: ERK1/2 EC50.

T2 sequence (P31652 whole entry): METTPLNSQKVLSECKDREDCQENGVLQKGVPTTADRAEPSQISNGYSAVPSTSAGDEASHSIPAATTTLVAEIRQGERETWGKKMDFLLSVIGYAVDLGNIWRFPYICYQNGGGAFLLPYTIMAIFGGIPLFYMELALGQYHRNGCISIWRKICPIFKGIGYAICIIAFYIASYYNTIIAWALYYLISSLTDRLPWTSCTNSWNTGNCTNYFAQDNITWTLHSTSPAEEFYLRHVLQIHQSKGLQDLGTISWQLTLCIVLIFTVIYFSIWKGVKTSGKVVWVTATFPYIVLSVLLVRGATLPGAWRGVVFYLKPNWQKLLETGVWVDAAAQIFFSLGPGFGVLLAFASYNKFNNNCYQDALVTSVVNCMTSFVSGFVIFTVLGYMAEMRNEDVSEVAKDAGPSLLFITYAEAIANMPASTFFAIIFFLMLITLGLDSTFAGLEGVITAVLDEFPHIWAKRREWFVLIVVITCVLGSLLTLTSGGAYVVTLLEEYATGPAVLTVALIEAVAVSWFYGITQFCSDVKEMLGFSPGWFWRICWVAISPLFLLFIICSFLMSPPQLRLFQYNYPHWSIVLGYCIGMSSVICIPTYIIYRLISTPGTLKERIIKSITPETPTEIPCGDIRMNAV

In the case of `CCCN(CCC)[C@@H]1CCc2cccc(O)c2C1` [Compound 8-OH-DPAT, (2R)-(+)-8-Hydroxy-2-(di-n-propylamino)tetralin hydrobromide], in data set [1], the “minimal effective dose (MED), reduction of immobility” value is on record as 0.63 mg/kg.

As for `COc1ccc2cccc(N3CCN(CCNC(=O)c4ccc(F)cc4)CC3)c2c1.Cl` [Compound S14506, 4-Fluoro-N-[2-[4-(7-methoxy-1-naphthalenyl)-1-piperazinyl]ethyl]benzamide hydrochloride, reference compound], the IC50 in the data set with PC-3 cells [2] (PC-3 cells) was determined as 9980 ± 1260 nM; in the data set on SH-SY5Y cells (SH-SY5Y cells), 4270 ± 410 nM; in the data set with Balb/c 3T3 cells it was 20600 ± 2580 nM; with Akt pathway, 15400 nM; in the data set on PC-3 cells [5] (read-out: cAMP biochemical pathway IC50), 320 nM. The “cytotoxic activity in the presence of WAY100635 and spiperone” value is reported as “reversed” in the data set on PC-3 cells [2] (PC-3 cells, WAY100635 (5 µM), spiperone (5 µM)) and “not against neuroblastoma SH-SY5Y cells” in the data set with SH-SY5Y cells (SH-SY5Y cells, WAY100635 (5 µM), spiperone (5 µM)). For the same compound, the EC50 at 5-HT1A receptor [3] (agonist mode, 1 µM forskolin-stimulated HEK293-5-HT1A cells) came to 0.0254 nM; at 5-HT1A receptor [4] (setting [8]), 0.062 nM; on 5-HT1A receptor [4] (elevating phosphorylated ERK1/2 levels, read-out: MAPK/ERK1/2 pathway agonist EC50) it was 0.093 nM; in the data set on PC-3 cells [5] it was 320 nM. Also, at 5-HT1A receptor [6], the dissociation constant (Kd) is 0.79 ± 0.2 nM. Further, in the data set with dopamine D2 receptor, the “dopamine D2 receptor properties” value is listed as “dopamine D2 receptor antagonist”.

Consider `Cl.O=[N+]([O-])c1ccc2nc(N3CCN(CC4CCC4)CC3)ccc2c1` [AB22, 2-[4-(cyclobutylmethyl)piperazin-1-yl]-6-nitroquinoline hydrochloride], for which the melting point lay in the range of 99 to 101 °C. The Ki in [7] came out at 7.6 ± 0.8 nM. This compound came in with a half-inhibitory concentration (IC50) in the data set with PC-3 cells [2] (PC-3 cells) of 23500 ± 2210 nM. Moreover, in the data set with PC-3 cells [2] (IC50 Balb/c 3T3 / IC50 PC-3), the “Selectivity Index” value was 1.51. Also, the half-maximal inhibitory concentration (IC50) with SH-SY5Y cells (SH-SY5Y cells) was found to be 35000 ± 8960 nM. For the same compound, the “Selectivity Index” value with SH-SY5Y cells (IC50 Balb/c 3T3 / IC50 SH-SY5Y) amounted to 1.01. Also, the 50% inhibitory concentration (IC50) in the data set with Balb/c 3T3 cells is 35500 ± 8710 nM. Further, the concentration for half-maximal inhibition (IC50) at 5-HT1A receptor [3] amounted to 76100 nM. Further, the EC50 at 5-HT1A receptor [4] (setting [8]) was 13.8 nM.

As a reminder, the IC50 is the concentration that gives 50% inhibition. One may read the Kd as the equilibrium constant for the complex coming apart. Broadly, the Ki is a dissociation constant, usually derived from enzyme kinetics or from competition with a known ligand. The term melting point denotes the temperature, or range, at which the solid turns liquid.
